This note sets out measurements from patent US5244883A, “Nonapeptide bombesin antagonists” (The Administrators of the Tulane Educational Fund, priority 1990, dated 1993).

In one assay the test system is 3T3 CELLS. The format is cell-based, Murine. Conditions: GRP 3 ng/ml alone, no antagonist; basal 207000 ± 4200. The method, then: (C) Inhibition of ^3 H-Thymidine incorporation by 3T3cells. SCLC cells were used 2 to 4 days after passage. Single cell suspensions were prepared by washing the cells (twice with PBS then pipetting them in PBS containing 0.2 g/liter glucose, 0.2 g/liter EDTA, and 14 mM lignocaine hydrochloride at 37° C. until the suspension appeared to be uniform (2-4 min). The cells were washed three times and resuspended in HITES without FCSB. Cultures were set up at 1.34×10^5 cells plated on day 0, all peptides added at same time in 1 ml. of RPMI-1640 medium plus HITES and 0.125% albumin. 48 hours later, 1 uc. of tritiated thymidine was added to each well and incubation continued for an additional 24 hours. Cells then were washed and deposited on glass filter paper and washed with ice cold 5% trichloro-acetic acid. Filter paper placed in vials containing scintillation fluid and counted for 1 minute. | 348,000 - 207,000 = 141,000 was taken as the stimulation

The next assay concerns serum gastrin. Description: Serum gastrin inhibition in vivo after GRP stimulation. To be noted: rat, eight minutes after GRP 3 μg/100 g BW alone; control 16.7. As to the method: Bombesin analogs Peptides (5), (10) and (2) were tested in vivo on serum gastrin inhibition after GRP stimulation.

Where no end group is shown, it is not given here.

As to “GRP: gastrin releasing peptide, peptide amide containing 27 amino-acid with bombesin-like properties; agonist stimulus (VPLPAGGGTVLTKMYPRGNHWAVGHLM-NH2; UniProt P07492 24-50, looked up)”, the “DPM ± S.E.” value in the assay with 3T3 CELLS came out at 348000 ± 15300 DPM. This substance also yielded a serum gastrin level in the assay with serum gastrin of 105 pg/mL.
